The values below come from patent publication US6914072B2, “Cannabinoid drugs” (Indevus Pharmaceuticals, Inc., priority 2000, dated 2005).

Data set [1] is described as follows: Stereospecificity of the proliferation effect (D-isomer vs L-isomer). Format: cell-based. As to conditions: 25 μM dose, p<0.001, FIG. 2. The text has this: (§1) Cell proliferation assays. […] 5:69-84, 1995.
To assess whether ajulemic acid's effect was receptor-mediated, a preparation 95% enriched in the D-isomer of ajulemic acid was used to examine the stereospecificity of the effect observed above.

Data set [2] has as its system human cell lines derived from a variety of cancer types (brain, breast, bladder, lung, and prostate). In words: 48 hour MTT assay, panel of ten human cancer cell lines (mean). The format is cell-based. Conditions: 25 μM; for Inhibition level (mean±SD) over the human cancer cell lines: 48 hours, mean±SD of ten lines. On the procedure: as §1
(§2) The proliferation of a number of human cell lines derived from a variety of cancer types (brain, breast, bladder, lung, and prostate) was tested for sensitivity to 25 μM of each agent for 48 hours.

The test system of data set [3] is J82. Kind of data set: 48 hour MTT assay, J82 (bladder). The format is cell-based, human. Conditions: 25 μM. How it is done: as §1, §2
A general note: Formazan colour is commonly taken as a measure of viable cells.

Data set [4] deals with U373. Kind of data set: 48 hour MTT assay, U373 (brain). Format: cell-based, human. As to conditions: 25 μM. On the procedure:
as §1, §2

The subject of data set [5] is U87. In words: 48 hour MTT assay, U87 (brain). The format is cell-based, human. As to conditions: 25 μM. On the procedure:
as §1, §2

Data set [6] deals with C6 cells. Kind of data set: Cell morphology (phase and electron microscopy), C6 cells. The format is cell-based. On the procedure: (§3) In order to investigate this effect further, the effect of ajulemic acid on cell cycle kinetics was assessed. C6 glioma cells were incubated for 24 hours in media containing 0.5% serum to synchronize them in G1/G0. The cells were then exposed to media containing 10% serum either with or without 25 μM ajulemic acid for two days.
Third, another distinctive feature of ajulemic acid's antitumor effect was the appearance of retractile bodies that could be easily visualized with phase microscopy. Both the number of cells that had refractile bodies as well as the number of refractile bodies/cell increased over time. After 48 hours, 83% of ajulemic acid-treated C6 cells had one or more refractile bodies compared to 27% to THC-treated cells (p<0.001, Chi-square analysis). The mean number of refractile bodies per cell was also much higher for ajulemic acid-treated cells compared to THC-treated cells (1.78±1.6 vs. 0.22±0.5 per cell, p<0.001, t-test).
To further explore the nature of the cell enlargement and refractile bodies, cells were examined under electron microscopy. […] In fact, these cells appeared metabolically active. […] Moreover, ajulemic acid-treated cells were enlarged and contained large lipid droplets, the identity of which was confirmed by […].

Data set [7] has as its system Du145. Kind of data set: 48 hour MTT assay, Du145 (prostate). The format is cell-based, human. As to conditions: 25 μM. How it is done: as §1, §2
The test system of data set [8] is HS578T. Kind of data set: 48 hour MTT assay, HS578T (breast). Format: cell-based, human. As to conditions: 25 μM. How it is done:
as §1, §2

In data set [9] the test system is PC3. Kind of data set: 48 hour MTT assay, PC3 (prostate). As to conditions: 25 μM. Format: cell-based, human. How it is done:
as §1, §2

Data set [10] deals with Calu6. Kind of data set: 48 hour MTT assay, Calu6 (lung). As to conditions: 25 μM. The format is cell-based, human. On the procedure: as §1, §2
Data set [11] has as its system HT1376. In words: 48 hour MTT assay, HT1376 (bladder). Conditions: 25 μM. The format is cell-based, human. On the procedure:
as §1, §2

Data set [12] concerns A172. In words: 48 hour MTT assay, A172 (brain). As to conditions: 25 μM. The format is cell-based, human. On the procedure: as §1, §2
The test system of data set [13] is U118. In words: 48 hour MTT assay, U118 (brain). Format: cell-based, human. Conditions: 25 μM. On the procedure:
as §1, §2

Data set [14] concerns C6 glioma cells. In words: Flow cytometry/cell cycle analysis. Format: cell-based. Conditions: 25 μM, two days in 10% serum after synchronization; control 4.4 ± 0.3. On the procedure:
Flow cytometry/cell cycle analysis. For flow cytometry, cells were grown in low serum (0.5%) for two days to synchronize cells in G0/G1, after which they were placed in high serum (10%) for two days. The cells were then labeled with propidium iodide and fixed in 4% paraformaldehyde. Cells were examined using a MoFlo Facs sorter for DNA content.
as §3
For orientation: In flow cytometry, cells or beads pass a laser one at a time.

Data set [15] concerns C6 cells. In words: Lipid incorporation assay (14C-arachidonic acid). The format is cell-based. As to conditions: 25 μM, 48 hours.
For data set [16], the system named is C6 glioma cells. Kind of data set: MTT cell proliferation assay, C6 glioma cells. The format is cell-based. On the procedure:
as §1, §2

Data set [17] deals with normal fibroblast cell line WI38. In words: MTT cell proliferation assay, WI38 cells. As to conditions: 25 μM, two days, three different experiments.
The subject of data set [18] is human glioma cell line U87. In words: In vivo subcutaneous U87 nude mouse tumor model. More on the design: species or system male nu/nu BALBc mice. Conditions: 0.1 mg/kg thrice weekly, FIG. 4. How it is done:
In vivo subcutaneous model. 10^6 U87 cells were injected into the right […] of male nu/nu BALBc mice (Charles River). Two days after inoculation, the mice received either 0.1 mg/kg ajulemic acid in 0.05 ml of safflower oil, or 0.05 ml safflower oil by oral administration. Thereafter, identical dosings were performed on each Monday, Wednesday, and Friday. When visible tumors appeared, the size of the tumors were estimated by averaging the values of two roughly perpendicular diameters measurements. Visible tumors were measured on the days of drug administration.
Whether ajulemic acid has in vivo antitumor activity was determined using a nude mouse tumor model. The growth of the human glioma cell line U87 injected subcutaneously in nude mice was assessed with and without ajulemic acid administration. For these experiments, ajulemic acid treatment was initiated two days after inoculation of 10^6 tumor cells in the mice. […] At day 25 post-inoculation, 5 of 5 control mice had tumors with a mean diameter of 16.3±3.2 mm, while the mean diameter in the treated group was 3.8±8.5 mm (n=5, p-0.015, t-test).

In data set [19] the test system is C6 glioma cells. In words: Co-incubation of C6 glioma cells with a CB1 antagonist. Format: cell-based. Conditions: 3.2 μM of a specific CB1 antagonist.
Description: as §1
First, the compound's inhibition of cell proliferation was not reversible with a CB1 antagonist.

Data set [20] has as its system WI38 cells. Kind of data set: Refractile bodies by phase microscopy, WI38 cells. Format: cell-based, rat. As to conditions: same length of time and dosage (48 hours).
The subject of data set [21] is PKC activity in C6 cells. Kind of data set: Protein kinase C (PKC) assay. Format: cell-based. As to conditions: 25 μM. On the procedure:
Protein kiniase C (PKC) assay. Cells were transferred into MEM media (0.5% serum) and cultured overnight. The next day, cells were treated with either DMSO or 25 μM ajulemic acid for the specified incubation time, after which the plates were trypsinized. 5×10^6 trypsinized cells were assayed for PKC activity using a kit (Calbiochem, cat. no. 53984).
Because diacyl glycerol (DAG) is an important signal transducer of protein kinase C, the effect of ajulemic acid treatment on the PKC activity in C6 cells was examined. […] At least two alternative explanations for this observation exist: (1) the PKC isozymes that were stimulated were those with slow growth, such as PKCδ; and (2) the increased DAG was modulating some other downstream mediator, such as β-chimaerin, to a greater extent such that the balance is towards anti-proliferation.

The subject of data set [22] is C6 cells. In words: Viability by trypan blue exclusion. The format is cell-based. Conditions: ajulemic acid-treated cells.

For orientation: IC50 means the concentration that gives 50% inhibition.

For the molecule `CCCCCCC(C)(C)c1cc(O)c2c(c1)OC(C)(C)[C@@H]1CC=C(C(=O)O)C[C@@H]21` (single isomer, unassigned) [D-isomer of ajulemic acid], in data set [1], the “Potency of D-isomer compared to L-isomer of ajulemic acid” value is “marked decrease in the potency”.

Consider `CCCCCc1cc(O)c2c(c1)OC(C)(C)[C@@H]1CC=C(C(=O)O)C[C@@H]21` [THC-11-oic acid, reference compound], for which the “Inhibition level (mean±SD) over the human cancer cell lines” value in data set [2] was 13.1±18.5%. In addition, the “Percent inhibition of human cancer cell line growth in 48 hour MTT assay” value (shortened to “Percent inhibition”) in data set [3] was 3 ± 1%; in [4] it was 0%; in data set [5] it was 5 ± 1%; in data set [7], 7 ± 3%; in data set [8], 2 ± 1%; in [9], 1 ± 1%. Also, the “Percent inhibition” value in data set [10] was found to be 19 ± 5%; in [11] it was 21 ± 12%; in [12], 61 ± 2%; in [13], 14 ± 3%. In addition, the “Refractile bodies (in words), C6 glioma cells” value in data set [6] (25 μM, 48 hours) is “no retractile bodies were noted”.

In the case of `CCCCCCC(C)(C)c1cc(O)c2c(c1)OC(C)(C)[C@@H]1CC=C(C(=O)O)C[C@@H]21` [ajulemic acid, 1′,1′-dimethylheptyl-Δ^8-THC11-oic acid], the “Inhibition level (mean±SD) over the human cancer cell lines” value in data set [2] is reported as 61.3 ±12.1%. For the same molecule, in data set [2] (p<0.05, in six of the ten lines tested), the “Effectiveness compared to THC in the ten lines” value is listed as “significantly more effective”. Besides, the “S (mean % ± SD)” value in data set [14] is reported as 13.0%. The “Content of tri- and di-glyceride relative to controls” value in data set [15] is reported as “over three-fold greater than in controls”. Further, in data set [15] (p<0.05 Dunnett's test, FIG. 3), the “Neutral lipids (14C-arachidonic acid incorporation) versus basal levels” value is “significant increase above basal levels”. Besides, the “Inhibition of C6 cell proliferation” value in [16] (25 μM, two days, three different experiments) was determined as 65%. The IC50 in [16] (C6 glioma cells, FIG. 1, read-out: IC50, inhibition of C6 glioma cells (MTT assay)) came out at 55 µM. Also, in data set [17], the “Inhibition of WI38 cell proliferation” value was 44%. In addition, in data set [18], the “Tumor appearance and size (in words)” value was “A delay in both the appearance and size of tumors”. Also, the “Percent inhibition” value in data set [3] turned out to be 57 ± 3%; in [4], 34 ± 1%; in data set [5], 54 ± 2%; in data set [7] it was 74 ± 2%; in data set [8] it was 60 ± 2%; in data set [9] it was 69 ± 2%. For the same molecule, the “Percent inhibition” value was found to be 69 ± 3% in data set [10], 60 ± 2% in data set [11], 76 ± 1% in data set [12] and 60 ± 2% in data set [13]. The “Appearance of treated cells under electron microscopy” value in [6] is given as “neither apoptotic nor necrotic”. In addition, in data set [19], the “Change of effect on co-incubation with CB1 antagonist (in words)” value is given as “slight potentiation”. Further, the “Refractile bodies (in words), WI38 cells” value in data set [20] was “no retractile bodies were noted”. Moreover, the “Onset of PKC activity increase” value in [21] was “increased within five minutes”. Besides, the “PKC activity relative to control” value in [21] (for one hour) is listed as “approximately two-fold above that of control”. Also, the “Viability rate by trypan blue exclusion” value in [22] was above 95%.

As for `CCCCCc1cc(O)c2c(c1)OC(C)(C)[C@@H]1CCC(C)=C[C@@H]21` [Δ^9-THC, tetrahydrocannabinol, reference compound], in data set [19], the “Decrease in potency on co-incubation with CB1 antagonist” value was 150%.
